This note sets out measurements from paper PMC11990452, “Discovery of MAGL Inhibition by Lophine Derivatives: An Unexpected Finding from Chemiluminescent Assay Development” (Molecules, 2025).

Test [1] has as its target T1, human recombinant monoacylglycerol lipase (hMAGL) (Homo sapiens, UniProt Q99685).
T1 construct: gene MGLL
T1 sequence (Q99685 1-303): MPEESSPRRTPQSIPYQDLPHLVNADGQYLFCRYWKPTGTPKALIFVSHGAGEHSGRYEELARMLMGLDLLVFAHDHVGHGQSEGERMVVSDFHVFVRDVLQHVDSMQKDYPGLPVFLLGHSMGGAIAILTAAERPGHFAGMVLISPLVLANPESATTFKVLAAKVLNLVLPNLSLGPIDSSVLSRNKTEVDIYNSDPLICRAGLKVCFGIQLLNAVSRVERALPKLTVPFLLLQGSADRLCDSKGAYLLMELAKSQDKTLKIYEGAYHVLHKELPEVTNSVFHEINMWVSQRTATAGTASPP
Put plainly: fluorometric 7-HRO hydrolysis assay, residual activity at […]. It is filed as biochemical.

For test [2], the target named is T1, human recombinant monoacylglycerol lipase (hMAGL). The test can be described thus: fluorometric 7-HRO hydrolysis assay with recombinant hMAGL; dilution reversibility and Lineweaver-Burk kinetics. It is filed as biochemical.

The structures appear in SMILES notation.

For the compound `CCCC(=O)Oc1ccc(-c2nc(-c3ccccc3)c(-c3ccccc3)[nH]2)cc1` [compound 2, Butyric Acid Ester of 2-(4-Hydroxyphenyl)-4,5-Diphenylimidazole], the “fluorometric 7-HRO hydrolysis assay, residual activity at 50 nM-100 μM” value in test [1] is “all tested compounds interact with MAGL, leading to a concentration-dependent reduction in enzyme activity”.

Consider `CCCCCCCCCCCCCCCC(=O)Oc1ccc(-c2nc(-c3ccccc3)c(-c3ccccc3)[nH]2)cc1` [compound 4, Palmitic Acid Ester of 2-(4-Hydroxyphenyl)-4,5-Diphenylimidazole], for which, in test [2], the IC50 was 6.5 µM.

Regarding `Oc1ccc(-c2nc(-c3ccccc3)c(-c3ccccc3)[nH]2)cc1` [compound 1, 2-(4-Hydroxyphenyl)-4,5-Diphenylimidazole], the “fluorometric 7-HRO hydrolysis assay, residual activity at 50 nM-100 μM” value in test [1] was “all tested compounds interact with MAGL, leading to a concentration-dependent reduction in enzyme activity”.

As to `CCCCCCCC(=O)Oc1ccc(-c2nc(-c3ccccc3)c(-c3ccccc3)[nH]2)cc1` [compound 3, Octanoic Acid Ester of 2-(4-Hydroxyphenyl)-4,5-Diphenylimidazole], in test [2], the IC50 was 21 µM.

For orientation: IC50 means the midpoint of a concentration-inhibition curve.
